Measured values: the supplement of paper PMC10627819

How the values were obtained:
[1] = system: B. subtilis 168; test: fitness (endpoint OD595 vs no drug) (fraction); higher = more growth
Procedure, shortened: (§1)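 Cultures at OD595 0.01 were dispensed into 384-well plates in TSB, LB Lennox or CY and incubated at 37 °C. Every 30 min for 14 h, OD595 was read and corrected by the first reading. Fitness is the optical density at entry into stationary phase relative to the robust mean of no-drug control wells, capped at 1.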

[2] = system: S. pneumoniae D39V; test: as above
Procedure, shortened: as §1

[3] = system: B. subtilis 168; test: Bliss interaction score (quartile over a dose matrix) (fitness difference); higher = more antagonism (negative = synergy)
Procedure, shortened: (§2)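 The Bliss score is observed minus expected fitness, where expected fitness is the product of the single-drug fitness values inferred from the combination data. Fitness is the OD595 at the onset of stationary phase over the plate's robust no-drug mean, capped at 1. Scores are summarised by quartiles over technical, biological and donor/recipient replicates.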

[4] = system: S. aureus DSM 20231; test: as above
Procedure, shortened: as §2

[5] = system: S. pneumoniae D39V; test: as above
Procedure, shortened: as §2

[6] = system: S. aureus Newman; test: as above
Procedure, shortened: as §2

[7] = first compound 0.125 µg/mL, partner 0.2 µg/mL
[8] = first compound 0.125 µg/mL, partner 0.4 µg/mL
[9] = first compound 0.125 µg/mL, partner 0.8 µg/mL
[10] = first compound 0.25 µg/mL, partner 0.2 µg/mL, one replicate
[11] = first compound 0.25 µg/mL, partner 0.4 µg/mL, one replicate
[12] = first compound 0.25 µg/mL, partner 0.8 µg/mL, one replicate
[13] = first compound 0.5 µg/mL, partner 0.2 µg/mL
[14] = first compound 0.5 µg/mL, partner 0.4 µg/mL
[15] = first compound 0.5 µg/mL, partner 0.8 µg/mL
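For Bliss interaction score (quartile over a dose matrix) in this document: first quartile when negative (synergy) and third quartile when positive (antagonism).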

Compound: O=C(O)c1cn(C2CC2)c2cc(N3CCNCC3)c(F)cc2c1=O [Ciprofloxacin] + CCC[C@@H]1C[C@@H](C(=O)N[C@@H]([C@H]2O[C@H](SC)[C@H](O)[C@@H](O)[C@H]2O)[C@@H](C)O)N(C)C1 [Lincomycin]
- fitness ([1]; first compound 0.0098 µg/mL, partner 0.1 µg/mL): 0.876
- fitness ([1]; first compound 0.0098 µg/mL, partner 0.2 µg/mL): 0.814
- fitness ([1]; first compound 0.0098 µg/mL, partner 0.4 µg/mL): 0.9
- fitness ([1]; first compound 0.0098 µg/mL, partner 0.8 µg/mL, one replicate): 0.943
- fitness ([1]; first compound 0.0098 µg/mL, partner 1.6 µg/mL, one replicate): 0.926
- fitness ([1]; first compound 0.0195 µg/mL, partner 0.1 µg/mL): 0.713
- fitness ([1]; first compound 0.0195 µg/mL, partner 0.2 µg/mL): 0.751
- fitness ([1]; first compound 0.0195 µg/mL, partner 0.4 µg/mL): 0.763
- fitness ([1]; first compound 0.0195 µg/mL, partner 0.8 µg/mL, one replicate): 0.745
- fitness ([1]; first compound 0.0195 µg/mL, partner 1.6 µg/mL, one replicate): 0.767
- fitness ([1]; first compound 0.039 µg/mL, partner 0.8 µg/mL, one replicate): 0.486
- fitness ([1]; first compound 0.039 µg/mL, partner 1.6 µg/mL, one replicate): 0.674
- fitness [2, 7]: 0.564
- fitness ([2]; first compound 0.125 µg/mL, partner 0.215 µg/mL): 0.801
- fitness [2, 8]: 0.323
- fitness ([2]; first compound 0.125 µg/mL, partner 0.43 µg/mL): 0.722
- fitness [2, 9]: 0.0204
- fitness ([2]; first compound 0.125 µg/mL, partner 0.86 µg/mL): 0.469
- fitness [2, 10]: 0.404
- fitness ([2]; first compound 0.25 µg/mL, partner 0.215 µg/mL): 0.789
- fitness [2, 11]: 0.256
- fitness ([2]; first compound 0.25 µg/mL, partner 0.43 µg/mL): 0.701
- fitness [2, 12]: 0
- fitness ([2]; first compound 0.25 µg/mL, partner 0.86 µg/mL): 0.517
- fitness [2, 13]: 0.46
- fitness ([2]; first compound 0.5 µg/mL, partner 0.215 µg/mL): 0.674
- fitness [2, 14]: 0.292
- fitness ([2]; first compound 0.5 µg/mL, partner 0.43 µg/mL): 0.618
- fitness [2, 15]: 0.0616
- fitness ([2]; first compound 0.5 µg/mL, partner 0.86 µg/mL): 0.318
- Bliss interaction score [3]: 0.169
- Bliss interaction score [4]: 0.208
- Bliss interaction score [5]: 0.0743
- Bliss interaction score [6]: 0.119

Compound: CO/N=C(\C(=O)N[C@@H]1C(=O)N2C(C(=O)O)=C(COC(C)=O)CS[C@H]12)c1csc(N)n1 [Cefotaxime] + CN(C)C(=O)C(CCN1CCC(O)(c2ccc(Cl)cc2)CC1)(c1ccccc1)c1ccccc1 [Loperamide]
- fitness ([1]; first compound 0.00775 µg/mL, partner 25 µg/mL, one replicate): 0.406
- fitness ([1]; first compound 0.00775 µg/mL, partner 50 µg/mL, one replicate): 0.0446
- fitness ([1]; first compound 0.00775 µg/mL, partner 100 µg/mL, one replicate): 0.0412
- fitness ([1]; first compound 0.0155 µg/mL, partner 25 µg/mL, one replicate): 0.0668
- fitness ([1]; first compound 0.0155 µg/mL, partner 50 µg/mL, one replicate): 0.0311
- fitness ([1]; first compound 0.0155 µg/mL, partner 100 µg/mL, one replicate): 0.0228
- fitness ([1]; first compound 0.031 µg/mL, partner 25 µg/mL, one replicate): 0.0762
- fitness ([1]; first compound 0.031 µg/mL, partner 50 µg/mL, one replicate): 0.0295
- fitness ([1]; first compound 0.031 µg/mL, partner 100 µg/mL, one replicate): 0.0243
- fitness ([1]; first compound 0.5 µg/mL, partner 25 µg/mL): 0.0401
- fitness ([1]; first compound 0.5 µg/mL, partner 50 µg/mL): 0.0447
- fitness ([1]; first compound 0.5 µg/mL, partner 100 µg/mL): 0.0339
- fitness ([1]; first compound 1 µg/mL, partner 25 µg/mL): 0.0257
- fitness ([1]; first compound 1 µg/mL, partner 50 µg/mL): 0.0406
- fitness ([1]; first compound 1 µg/mL, partner 100 µg/mL): 0.032
- fitness ([1]; first compound 2 µg/mL, partner 25 µg/mL): 0.0689
- fitness ([1]; first compound 2 µg/mL, partner 50 µg/mL): 0.0803
- fitness ([1]; first compound 2 µg/mL, partner 100 µg/mL): 0.0709
- fitness ([2]; first compound 0.0018 µg/mL, partner 17.14 µg/mL): 0.977
- fitness ([2]; first compound 0.0018 µg/mL, partner 20 µg/mL): 0.988
- fitness ([2]; first compound 0.0018 µg/mL, partner 34.28 µg/mL): 0.984
- fitness ([2]; first compound 0.0018 µg/mL, partner 40 µg/mL): ≥ 1
- fitness ([2]; first compound 0.0018 µg/mL, partner 68.57 µg/mL, one replicate): ≥ 1
- fitness ([2]; first compound 0.0018 µg/mL, partner 80 µg/mL): ≥ 1
- fitness ([2]; first compound 0.0035 µg/mL, partner 17.14 µg/mL): 0.981
- fitness ([2]; first compound 0.0035 µg/mL, partner 20 µg/mL): 0.984
- fitness ([2]; first compound 0.0035 µg/mL, partner 34.28 µg/mL): 0.935
- fitness ([2]; first compound 0.0035 µg/mL, partner 40 µg/mL): 0.977
- fitness ([2]; first compound 0.0035 µg/mL, partner 68.57 µg/mL, one replicate): 0.999
- fitness ([2]; first compound 0.0035 µg/mL, partner 80 µg/mL): 0.956
- fitness ([2]; first compound 0.007 µg/mL, partner 20 µg/mL): 0.898
- fitness ([2]; first compound 0.007 µg/mL, partner 40 µg/mL): 0.842
- fitness ([2]; first compound 0.007 µg/mL, partner 68.57 µg/mL, one replicate): 0.761
- fitness ([2]; first compound 0.007 µg/mL, partner 80 µg/mL): 0.262
- Bliss interaction score [3]: -0.0982
- Bliss interaction score [4]: -0.0602
- Bliss interaction score [5]: -0.0572
- Bliss interaction score [6]: 0.0269

Compound: C[C@H]1c2cccc(O)c2C(=O)C2=C(O)[C@]3(O)C(=O)C(C(N)=O)=C(O)[C@@H](N(C)C)[C@@H]3[C@@H](O)[C@@H]21 [Doxycycline] + CN1C2=CC=CC=C2N=C3C1=CC=CC3=O [Pyocyanin]
- fitness ([1]; first compound 0.02 µg/mL, partner 1.25 µg/mL): 0.875
- fitness ([1]; first compound 0.02 µg/mL, partner 2.5 µg/mL): 0.828
- fitness ([1]; first compound 0.02 µg/mL, partner 5 µg/mL): 0.737
- fitness ([1]; first compound 0.04 µg/mL, partner 1.25 µg/mL): 0.775
- fitness ([1]; first compound 0.04 µg/mL, partner 2.5 µg/mL): 0.692
- fitness ([1]; first compound 0.04 µg/mL, partner 5 µg/mL): 0.605
- fitness ([1]; first compound 0.08 µg/mL, partner 1.25 µg/mL): 0.613
- fitness ([1]; first compound 0.08 µg/mL, partner 2.5 µg/mL): 0.559
- fitness ([1]; first compound 0.08 µg/mL, partner 5 µg/mL): 0.36
- fitness ([2]; first compound 0.003875 µg/mL, partner 0.325 µg/mL, one replicate): ≥ 1
- fitness ([2]; first compound 0.003875 µg/mL, partner 0.65 µg/mL, one replicate): ≥ 1
- fitness ([2]; first compound 0.003875 µg/mL, partner 1.3 µg/mL, one replicate): 0.741
- fitness ([2]; first compound 0.00775 µg/mL, partner 0.325 µg/mL, one replicate): ≥ 1
- fitness ([2]; first compound 0.00775 µg/mL, partner 0.65 µg/mL, one replicate): 0.997
- fitness ([2]; first compound 0.00775 µg/mL, partner 1.3 µg/mL, one replicate): 0.737
- fitness ([2]; first compound 0.0155 µg/mL, partner 0.325 µg/mL): ≥ 1
- fitness ([2]; first compound 0.0155 µg/mL, partner 0.65 µg/mL): ≥ 1
- fitness ([2]; first compound 0.0155 µg/mL, partner 1.3 µg/mL): 0.823
- fitness ([2]; first compound 0.031 µg/mL, partner 0.325 µg/mL): 0.941
- fitness ([2]; first compound 0.031 µg/mL, partner 0.65 µg/mL): 0.97
- fitness ([2]; first compound 0.031 µg/mL, partner 1.3 µg/mL, one replicate): 0.854
- fitness ([2]; first compound 0.062 µg/mL, partner 0.325 µg/mL): 0.857
- fitness ([2]; first compound 0.062 µg/mL, partner 0.65 µg/mL): 0.87
- fitness ([2]; first compound 0.062 µg/mL, partner 1.3 µg/mL, one replicate): 0.694
- Bliss interaction score [3]: 0.092
- Bliss interaction score [4]: 0.0677
- Bliss interaction score [5]: 0.127
- Bliss interaction score [6]: -0.0231

Compound: O=C(O)c1cn(C2CC2)c2cc(N3CCNCC3)c(F)cc2c1=O [Ciprofloxacin] + CC(=O)NC[C@H]1CN(c2ccc(N3CCOCC3)c(F)c2)C(=O)O1 [Linezolid]
- fitness ([1]; first compound 0.0098 µg/mL, partner 0.0625 µg/mL, one replicate): 0.889
- fitness ([1]; first compound 0.0195 µg/mL, partner 0.0625 µg/mL, one replicate): 0.856
- fitness ([1]; first compound 0.0195 µg/mL, partner 0.125 µg/mL): 0.609
- fitness ([1]; first compound 0.0195 µg/mL, partner 0.5 µg/mL): 0.334
- fitness ([1]; first compound 0.039 µg/mL, partner 0.0625 µg/mL, one replicate): 0.417
- fitness ([1]; first compound 0.039 µg/mL, partner 0.125 µg/mL): 0.394
- fitness ([1]; first compound 0.039 µg/mL, partner 0.5 µg/mL): 0.263
- fitness ([2]; first compound 0.125 µg/mL, partner 0.105 µg/mL): 0.788
- fitness [2, 7]: 0.567
- fitness ([2]; first compound 0.125 µg/mL, partner 0.21 µg/mL): 0.712
- fitness [2, 8]: 0.298
- fitness ([2]; first compound 0.125 µg/mL, partner 0.42 µg/mL): 0.536
- fitness [2, 9]: 0.146
- fitness ([2]; first compound 0.25 µg/mL, partner 0.105 µg/mL): 0.776
- fitness [2, 10]: 0.442
- fitness ([2]; first compound 0.25 µg/mL, partner 0.21 µg/mL): 0.7
- fitness [2, 11]: 0.28
- fitness ([2]; first compound 0.25 µg/mL, partner 0.42 µg/mL): 0.551
- fitness [2, 12]: 0.154
- fitness ([2]; first compound 0.5 µg/mL, partner 0.105 µg/mL): 0.61
- fitness [2, 13]: 0.443
- fitness ([2]; first compound 0.5 µg/mL, partner 0.21 µg/mL): 0.569
- fitness [2, 14]: 0.252
- fitness ([2]; first compound 0.5 µg/mL, partner 0.42 µg/mL): 0.414
- fitness [2, 15]: 0.119
- Bliss interaction score [3]: 0.247
- Bliss interaction score [4]: 0.0785
- Bliss interaction score [5]: 0.0563
- Bliss interaction score [6]: 0.081
